Tested on: yeast genes (level of expressed mRNA)
Test: DNA chip analysis of expressed mRNA of yeast genes after 2 h culture with a toxic chemical substance
Assay type: cell-based, Saccharomyces cerevisiae S288C
How it was run: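 S. cerevisiae S288C in YPD at 25 °C was exposed at log phase for 2 h to a growth-inhibiting, non-lethal concentration of the chemical. Poly(A) mRNA was reverse-transcribed with Cy3- or Cy5-dUTP and hybridized to a whole-genome yeast DNA chip (65 °C, >12 h). Values are fluorescence ratios versus untreated cells.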

C[S+](C)[O-] [(15), dimethylsulfoxide]
level of expressed mRNA in the presence of chemical substance/in its absence (gene YAL012W): 3.1 | The level of expressed mRNA in the presence of chemical substance/absence: YAL014C (gene YAL014C): 2.3 | The level of expressed mRNA in the presence of chemical substance/absence: YAL017W (gene YAL017W): 1.0 | The level of expressed mRNA in the presence of chemical substance/absence: YAL018C (gene YAL018C): 6.9 | level of expressed mRNA in the presence of chemical substance/in its absence (gene YAL038W): 3.1 | level of expressed mRNA in the presence of chemical substance/in its absence (gene YAL044C): 0.7 | The level of expressed mRNA in the presence of chemical substance/absence: YAL049C (gene YAL049C): 1.4 | level of expressed mRNA in the presence of chemical substance/in its absence (gene YAL054C): 0.9 | The level of expressed mRNA in the presence of chemical substance/absence: YAR047C (gene YAR047C): 0.5 | The level of expressed mRNA in the presence of chemical substance/absence: YAR064W (gene YAR064W): 1.9 | level of expressed mRNA in the presence of chemical substance/in its absence (gene YAR071W): 1.1 | level of expressed mRNA in the presence of chemical substance/in its absence (gene YBL001C): 1.0 | The level of expressed mRNA in the presence of chemical substance/absence: YBL044W (gene YBL044W): 0.7 | The level of expressed mRNA in the presence of chemical substance/absence: YBL100C (gene YBL100C): 1.0 | The level of expressed mRNA in the presence of chemical substance/absence: YBR012C (gene YBR012C): 1.1 | The level of expressed mRNA in the presence of chemical substance/absence: YBR013C (gene YBR013C): 1.1 | level of expressed mRNA in the presence of chemical substance/in its absence (gene YBR014C): 1.2 | level of expressed mRNA in the presence of chemical substance/in its absence (gene YBR023C): 2.8 | level of expressed mRNA in the presence of chemical substance/in its absence (gene YBR029C): 3.5 | level of expressed mRNA in the presence of chemical substance/in its absence (gene YBR035C): 0.7 | level of expressed mRNA in the presence of chemical substance/in its absence (gene YBR050C): 0.5 | The level of expressed mRNA in the presence of chemical substance/absence: YBR051W (gene YBR051W): 0.8 | The level of expressed mRNA in the presence of chemical substance/absence: YBR063C (gene YBR063C): 1.6 | The level of expressed mRNA in the presence of chemical substance/absence: YBR066C (gene YBR066C): 0.4 | level of expressed mRNA in the presence of chemical substance/in its absence (gene YBR068C): 1.6 | level of expressed mRNA in the presence of chemical substance/in its absence (gene YBR111C): 0.7 | The level of expressed mRNA in the presence of chemical substance/absence: YBR124W (gene YBR124W): 1.0 | The level of expressed mRNA in the presence of chemical substance/absence: YBR129C (gene YBR129C): 0.9 | level of expressed mRNA in the presence of chemical substance/in its absence (gene YBR145W): 1.2 | The level of expressed mRNA in the presence of chemical substance/absence: YBR162C (gene YBR162C): 1.9 | level of expressed mRNA in the presence of chemical substance/in its absence (gene YBR183W): 1.1 | level of expressed mRNA in the presence of chemical substance/in its absence (gene YBR222C): 4.3 | The level of expressed mRNA in the presence of chemical substance/absence: YBR255W (gene YBR255W): 1.0 | The level of expressed mRNA in the presence of chemical substance/absence: YBR281C (gene YBR281C): 1.0 | The level of expressed mRNA in the presence of chemical substance/absence: YBR287W (gene YBR287W): 1.3 | level of expressed mRNA in the presence of chemical substance/in its absence (gene YBR299W): 0.6 | level of expressed mRNA in the presence of chemical substance/in its absence (gene YCL009C): 6.5 | The level of expressed mRNA in the presence of chemical substance/absence: YCL044C (gene YCL044C): 4.4 | The level of expressed mRNA in the presence of chemical substance/absence: YCL056C (gene YCL056C): 1.7 | level of expressed mRNA in the presence of chemical substance/in its absence (gene YCL064C): 21.4 | The level of expressed mRNA in the presence of chemical substance/absence: YCR007C (gene YCR007C): 0.8 | level of expressed mRNA in the presence of chemical substance/in its absence (gene YCR037C): 1.0 | level of expressed mRNA in the presence of chemical substance/in its absence (gene YCR048W): 3.1 | level of expressed mRNA in the presence of chemical substance/in its absence (gene YCR098C): 11.0 | level of expressed mRNA in the presence of chemical substance/in its absence (gene YDL022W): 0.9 | The level of expressed mRNA in the presence of chemical substance/absence: YDL046W (gene YDL046W): 2.3 | The level of expressed mRNA in the presence of chemical substance/absence: YDL089W (gene YDL089W): 1.6 | The level of expressed mRNA in the presence of chemical substance/absence: YDL173W (gene YDL173W): 1.1 | The level of expressed mRNA in the presence of chemical substance/absence: YDL193W (gene YDL193W): 1.2 | The level of expressed mRNA in the presence of chemical substance/absence: YDL233W (gene YDL233W): 1.3 | level of expressed mRNA in the presence of chemical substance/in its absence (gene YDR009W): 3.2 | level of expressed mRNA in the presence of chemical substance/in its absence (gene YDR019C): 1.8 | The level of expressed mRNA in the presence of chemical substance/absence: YDR071C (gene YDR071C): 0.9 | The level of expressed mRNA in the presence of chemical substance/absence: YDR078C (gene YDR078C): 0.5 | The level of expressed mRNA in the presence of chemical substance/absence: YDR090C (gene YDR090C): 1.1 | The level of expressed mRNA in the presence of chemical substance/absence: YDR109C (gene YDR109C): 1.7 | The level of expressed mRNA in the presence of chemical substance/absence: YDR128W (gene YDR128W): 1.4 | The level of expressed mRNA in the presence of chemical substance/absence: YDR133C (gene YDR133C): 0.6 | The level of expressed mRNA in the presence of chemical substance/absence: YDR140W (gene YDR140W): 0.9 | The level of expressed mRNA in the presence of chemical substance/absence: YDR221W (gene YDR221W): 1.0 | The level of expressed mRNA in the presence of chemical substance/absence: YDR250C (gene YDR250C): 0.7 | The level of expressed mRNA in the presence of chemical substance/absence: YDR271C (gene YDR271C): 1.3 | The level of expressed mRNA in the presence of chemical substance/absence: YDR278C (gene YDR278C): 0.7 | The level of expressed mRNA in the presence of chemical substance/absence: YDR281C (gene YDR281C): 0.3 | The level of expressed mRNA in the presence of chemical substance/absence: YDR316W (gene YDR316W): 1.3 | The level of expressed mRNA in the presence of chemical substance/absence: YDR338C (gene YDR338C): 0.8 | The level of expressed mRNA in the presence of chemical substance/absence: YDR366C (gene YDR366C): 1.4 | level of expressed mRNA in the presence of chemical substance/in its absence (gene YDR380W): 2.4 | level of expressed mRNA in the presence of chemical substance/in its absence (gene YDR410C): 1.2 | The level of expressed mRNA in the presence of chemical substance/absence: YDR421W (gene YDR421W): 1.9 | The level of expressed mRNA in the presence of chemical substance/absence: YDR425W (gene YDR425W): 1.3 | The level of expressed mRNA in the presence of chemical substance/absence: YDR485C (gene YDR485C): 1.3 | level of expressed mRNA in the presence of chemical substance/in its absence (gene YDR487C): 1.0 | level of expressed mRNA in the presence of chemical substance/in its absence (gene YDR502C): 8.2 | The level of expressed mRNA in the presence of chemical substance/absence: YDR504C (gene YDR504C): 1.2 | level of expressed mRNA in the presence of chemical substance/in its absence (gene YEL011W): 0.4 | level of expressed mRNA in the presence of chemical substance/in its absence (gene YEL020C): 1.4 | The level of expressed mRNA in the presence of chemical substance/absence: YEL044W (gene YEL044W): 0.6 | level of expressed mRNA in the presence of chemical substance/in its absence (gene YER026C): 4.0 | level of expressed mRNA in the presence of chemical substance/in its absence (gene YER069W): 2.4 | The level of expressed mRNA in the presence of chemical substance/absence: YER092W (gene YER092W): 1.0 | The level of expressed mRNA in the presence of chemical substance/absence: YER182W (gene YER182W): 0.5 | The level of expressed mRNA in the presence of chemical substance/absence: YFL042C (gene YFL042C): 1.1 | level of expressed mRNA in the presence of chemical substance/in its absence (gene YFR015C): 0.4 | The level of expressed mRNA in the presence of chemical substance/absence: YFR026C (gene YFR026C): 2.3 | The level of expressed mRNA in the presence of chemical substance/absence: YFR056C (gene YFR056C): 0.9 | level of expressed mRNA in the presence of chemical substance/in its absence (gene YGL001C): 0.9 | level of expressed mRNA in the presence of chemical substance/in its absence (gene YGL022W): 4.0 | level of expressed mRNA in the presence of chemical substance/in its absence (gene YGL039W): 1.5 | The level of expressed mRNA in the presence of chemical substance/absence: YGL041C (gene YGL041C): 0.7 | The level of expressed mRNA in the presence of chemical substance/absence: YGL045W (gene YGL045W): 1.5 | The level of expressed mRNA in the presence of chemical substance/absence: YGL057C (gene YGL057C): 0.7 | The level of expressed mRNA in the presence of chemical substance/absence: YGL088W (gene YGL088W): 0.4 | level of expressed mRNA in the presence of chemical substance/in its absence (gene YGL104C): 0.9 | level of expressed mRNA in the presence of chemical substance/in its absence (gene YGL126W): 2.8 | level of expressed mRNA in the presence of chemical substance/in its absence (gene YGL134W): 0.5 | level of expressed mRNA in the presence of chemical substance/in its absence (gene YGL154C): 0.8 | The level of expressed mRNA in the presence of chemical substance/absence: YGL183C (gene YGL183C): 1.7 | level of expressed mRNA in the presence of chemical substance/in its absence (gene YGL209W): 3.2 | The level of expressed mRNA in the presence of chemical substance/absence: YGL223C (gene YGL223C): 0.7 | level of expressed mRNA in the presence of chemical substance/in its absence (gene YGL253W): 0.8 | The level of expressed mRNA in the presence of chemical substance/absence: YGR038W (gene YGR038W): 1.1 | level of expressed mRNA in the presence of chemical substance/in its absence (gene YGR060W): 1.4 | The level of expressed mRNA in the presence of chemical substance/absence: YGR139W (gene YGR139W): 2.3 | The level of expressed mRNA in the presence of chemical substance/absence: YGR156W (gene YGR156W): 1.3 | The level of expressed mRNA in the presence of chemical substance/absence: YGR198W (gene YGR198W): 0.9 | The level of expressed mRNA in the presence of chemical substance/absence: YGR210C (gene YGR210C): 1.3 | The level of expressed mRNA in the presence of chemical substance/absence: YGR211W (gene YGR211W): 0.5 | The level of expressed mRNA in the presence of chemical substance/absence: YGR237C (gene YGR237C): 1.1 | The level of expressed mRNA in the presence of chemical substance/absence: YGR243W (gene YGR243W): 0.8 | The level of expressed mRNA in the presence of chemical substance/absence: YGR250C (gene YGR250C): 1.2 | The level of expressed mRNA in the presence of chemical substance/absence: YGR266W (gene YGR266W): 1.1 | The level of expressed mRNA in the presence of chemical substance/absence: YGR277C (gene YGR277C): 0.9 | level of expressed mRNA in the presence of chemical substance/in its absence (gene YGR282C): 2.9
